These results are taken from publication PMC3418602 (2009).

Targets include JAK1 (Homo sapiens, UniProt P23458); JAK3 (Homo sapiens, UniProt P52333); JAK2 (Homo sapiens, UniProt O60674).
Experiment in all cases: TR-FRET peptide phosphorylation kinase assay
Common to all, as to type: biochemical
Background: TR-FRET usually uses a lanthanide donor and a delayed reading to cut background.

Each structure is given as a SMILES string.

JAK2, sequence (O60674 840-1132 limits assumed): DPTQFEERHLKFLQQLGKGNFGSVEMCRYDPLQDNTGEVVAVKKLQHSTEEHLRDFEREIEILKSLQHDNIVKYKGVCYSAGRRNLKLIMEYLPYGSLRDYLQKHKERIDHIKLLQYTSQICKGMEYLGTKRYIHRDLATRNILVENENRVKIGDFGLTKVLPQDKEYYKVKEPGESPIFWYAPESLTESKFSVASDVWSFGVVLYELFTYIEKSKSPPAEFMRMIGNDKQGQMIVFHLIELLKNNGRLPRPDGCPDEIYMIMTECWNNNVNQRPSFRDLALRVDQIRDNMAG
JAK1, sequence (P23458 850-1154 limits assumed): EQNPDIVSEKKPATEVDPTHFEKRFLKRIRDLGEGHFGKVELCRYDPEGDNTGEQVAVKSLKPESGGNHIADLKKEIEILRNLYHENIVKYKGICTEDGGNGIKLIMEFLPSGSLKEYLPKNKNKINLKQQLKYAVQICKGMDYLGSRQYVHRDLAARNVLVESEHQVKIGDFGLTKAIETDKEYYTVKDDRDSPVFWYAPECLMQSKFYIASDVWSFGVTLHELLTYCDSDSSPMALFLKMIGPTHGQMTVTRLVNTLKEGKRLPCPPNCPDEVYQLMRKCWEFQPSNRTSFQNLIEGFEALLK
JAK3, sequence (P52333 781-1124 limits assumed): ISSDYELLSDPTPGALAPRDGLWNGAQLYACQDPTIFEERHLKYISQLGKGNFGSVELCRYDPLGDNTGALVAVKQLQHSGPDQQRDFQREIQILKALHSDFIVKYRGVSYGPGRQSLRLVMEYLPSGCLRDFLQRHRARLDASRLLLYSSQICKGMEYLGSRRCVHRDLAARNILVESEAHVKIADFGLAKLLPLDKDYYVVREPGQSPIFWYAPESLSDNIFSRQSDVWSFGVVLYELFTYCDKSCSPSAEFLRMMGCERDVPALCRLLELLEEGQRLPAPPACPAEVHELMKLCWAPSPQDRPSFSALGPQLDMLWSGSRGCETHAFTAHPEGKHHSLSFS

In the case of `N#C/C(=C\c1ccc(O)c(O)c1)C(=O)NCc1ccccc1` [AG490], the values for the IC50 at JAK1, against JAK3 and against JAK2 were 10.2 µM, 15.4 µM and 11.2 µM, respectively.
